Data on 1 compound can be found in patent US20260132103A1, “Bumetanide Derivatives for the Therapy of Stroke and Other Neurological Diseases/Disorders Involving NKCCs” (University of Pittsburgh - Of the Commonwealth System of …, priority 2018, published 2026).

Structures are written as SMILES.

One assay concerns GL26 and SB28-GFP cells. Put plainly: BrdU proliferation assay. The format is cell-based, mouse. The note with it: 48 h drug treatment, compared to BMT. As to the method:
FIG. 7: BrdU incorporation of GL26 cells and SB28-GFP cells following 48 h drug treatment. Data are means±SEM from three independent experiments. **P<0.01, ***p<0.001, ****p<0.0001.
Cell proliferation of GL26 and SB28-GFP cells was measured by quantifying BrdU incorporation. GL26 cells (5×10^3 cells/well) or SB28-GFP cells (1×10^3 cells/well) were seeded in 96-well plates in 100 μL media. After 24 hours in culture, cells were incubated with fresh medium plus the following reagents: DMSO vehicle (Con-Veh), BMT (B, 10 μM), TMZ (100 μM), or TMZ+B for 48 h. BrdU was added in the last 4 h period of the whole 48 h incubation. The incorporation of BrdU into newly synthesized DNA of proliferating cells was detected by using a peroxidase-conjugated antibody which reacts with the thymidine analogue BrdU. Bound anti-BrdU-peroxidase conjugated antibody was measured by a substrate reaction, and then quantified colorimetrically by an ELISA plate reader (Spectra MAX 190, Molecular Devices, Sunnyvale, CA) at dual wavelength of 450/550 nm.

In assay [1] the target is T1, pNKCC1 and tNKCC1 proteins (Mus musculus, UniProt P55012).
T1 construct: cell lysates were harvested for immunoblotting of pNKCC1 and tNKCC1 proteins; endogenous in cells; host or cells: GL26 and SB28-GFP mouse glioma cells
T1 sequence (P55012 1-1205): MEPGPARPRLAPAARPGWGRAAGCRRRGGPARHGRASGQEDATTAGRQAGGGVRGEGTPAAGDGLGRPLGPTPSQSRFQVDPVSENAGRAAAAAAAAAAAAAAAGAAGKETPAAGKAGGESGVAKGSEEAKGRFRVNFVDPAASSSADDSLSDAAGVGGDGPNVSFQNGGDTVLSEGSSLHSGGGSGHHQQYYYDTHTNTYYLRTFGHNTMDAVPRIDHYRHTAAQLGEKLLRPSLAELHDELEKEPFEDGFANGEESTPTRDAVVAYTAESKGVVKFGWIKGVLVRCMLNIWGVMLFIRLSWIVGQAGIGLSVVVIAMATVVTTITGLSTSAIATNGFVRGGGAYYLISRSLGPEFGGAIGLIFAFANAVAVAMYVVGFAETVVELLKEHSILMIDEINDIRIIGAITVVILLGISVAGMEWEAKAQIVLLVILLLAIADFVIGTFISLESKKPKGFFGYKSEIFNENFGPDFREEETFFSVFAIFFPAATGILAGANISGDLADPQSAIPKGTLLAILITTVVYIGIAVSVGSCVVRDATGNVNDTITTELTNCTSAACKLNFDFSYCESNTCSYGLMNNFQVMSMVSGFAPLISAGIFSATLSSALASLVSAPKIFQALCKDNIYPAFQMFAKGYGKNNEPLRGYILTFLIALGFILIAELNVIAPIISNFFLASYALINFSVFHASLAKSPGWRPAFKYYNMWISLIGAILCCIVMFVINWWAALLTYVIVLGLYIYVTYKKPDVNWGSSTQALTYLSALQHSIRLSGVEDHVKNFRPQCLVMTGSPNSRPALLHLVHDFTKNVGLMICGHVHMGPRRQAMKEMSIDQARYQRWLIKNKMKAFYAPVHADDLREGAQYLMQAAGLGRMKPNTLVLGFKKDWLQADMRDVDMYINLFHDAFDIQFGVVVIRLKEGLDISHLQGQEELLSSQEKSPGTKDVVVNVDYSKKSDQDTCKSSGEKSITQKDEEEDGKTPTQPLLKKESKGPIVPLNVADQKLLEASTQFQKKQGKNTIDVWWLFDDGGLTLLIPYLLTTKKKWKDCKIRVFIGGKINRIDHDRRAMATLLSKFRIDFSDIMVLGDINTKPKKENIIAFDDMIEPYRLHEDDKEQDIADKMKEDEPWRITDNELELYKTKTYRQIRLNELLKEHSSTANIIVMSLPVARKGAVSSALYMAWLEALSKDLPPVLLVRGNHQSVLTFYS
Put plainly: Immunoblotting of pNKCC1 and tNKCC1. The format is cell-based. The note with it: GL26 and SB28-GFP cells, 6 h; BMT 10 μM, STS66 10 μM, TMZ 100 μM or combined. The procedure:
FIGS. 6A-6B: GL26 and SB28-GFP cells were exposed to BMT (10 μM), STS66 (10 μM), TMZ (100 μM) or combined for 6 h and cell lysates were harvested for immunoblotting of pNKCC1 and tNKCC1 proteins. Data are means±SEM from six independent experiments. *P<0.05, **P<0.01, ***P<0.001.
GL26 and SB28-GFP cells were washed with ice-cold PBS and incubated in RIPA buffer containing 1 pill of phosSTOP and 2 mM protease inhibitors as described before (Algharabli et al. 2012). Cells were lysed by sonication at 4° C. Protein content of the cellular lysate was determined with BCA Protein Assay Kit. Samples and sample buffer (Thermo Scientific, Rockford, IL, USA) were boiled at 95° C. for 5 min. The samples were then electrophoretically separated on 10% SDS gels. After transferring to PVDF membranes, the blots were blocked in 10% nonfat dry milk in TBS-T (Tris-buffered saline, 0.05% Tween-20) for 1 hour at room temperature and then incubated with appropriate primary antibodies (pNKCC1, 1:300 and tNKCC1, 1:3000) at 4° C. overnight. After rinsing with TBS-T, the blots were incubated with horseradish peroxidase-conjugated secondary IgG (1:2000) for 1 hr at RT. Bound antibody was visualized with an enhanced chemiluminescence assay. Protein band signal intensities were analyzed using ImageJ and normalized to α-tubulin expression.

On to `CCCCNc1cc(CNCC(F)(F)F)cc(S(N)(=O)=O)c1Oc1ccccc1` [STS66, 3-(Butylamino)-2-phenoxy-5-[(2,2,2-trifluoroethylamino)methyl]benzenesulfonamide], for which the “inhibition of cell proliferation (BrdU incorporation)” value in the assay with GL26 and SB28-GFP cells was “more inhibition of GL26 and SB28-GFP cell proliferation than BMT”. For the same compound, the “pNKCC1 and tNKCC1 expression” value in assay [1] is given as “did not show significant decrease”.
